Tested on: HMOX1
Assay: HMOX1 Protein Assay (immunostaining of HO-1 in NHLF cells, GE InCell 1000)
Type: cell-based
Settings: Homo sapiens, fold change above DMSO treated cells, 5 μM compound, 16 h
Procedure, shortened: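 NHLF cells seeded overnight in FGM-2, then exposed to compound or DMSO vehicle for 16 h, fixed, and immunostained for HO-1 with Hoechst nuclear counterstain; imaged on InCell 1000. Values are fold change over DMSO-treated cells, generally at 5 μM (0.8% DMSO), with asterisked entries at 3 μM.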

| Compound | fold induction at 5 µM |
| --- | --- |
| COC(=O)c1ccc2c(c1)nc(Nc1nc3ccc(S(C)(=O)=O)cc3s1)n2C [Example 113, 2-(6-Methanesulfonyl-benzothiazol-2-ylamino)-1-methyl-1H-benzoimidazole-5-carboxylic acid methyl ester] | 27.6 |
| COC(=O)c1ccc2c(c1)nc(Nc1nc3ccc(C)cc3s1)n2C [Example 114, 1-Methyl-2-(6-methyl-benzothiazol-2-ylamino)-1H-benzoimidazole-5-carboxylic acid methyl ester] | 5.1 |
| CNC(=O)c1ccc2c(c1)nc(Nc1nc3cc(OC(F)(F)F)ccc3s1)n2C [Example 115, 1-Methyl-2-(5-trifluoromethoxy-benzothiazol-2-ylamino)-1H-benzimidazole-5-carboxylic acid methylamide] | 1.5 |
| COCCNC(=O)c1ccc2c(c1)nc(Nc1nc3cc(OC(F)(F)F)ccc3s1)n2C [Example 116, 1-Methyl-2-(5-trifluoromethoxy-benzothiazol-2-ylamino)-1H-benzimidazole-5-carboxylic acid (2-methoxy-ethyl)-amide] | 22.3 |
| Cn1c(Nc2nc3cc(F)ccc3s2)nc2cc(C(=O)O)ccc21 [Example 117, 2-(5-Fluoro-benzothiazol-2-ylamino)-1-methyl-1H-benzimidazole-5-carboxylic acid] | 28.8 |
| Cn1c(Nc2nc3ccc(F)cc3s2)nc2cc(C(=O)O)ccc21 [Example 118, 2-(6-Fluoro-benzothiazol-2-ylamino)-1-methyl-1H-benzimidazole-5-carboxylic acid] | 14.1 |
| Cn1c(Nc2nc3ccc(S(C)(=O)=O)cc3s2)nc2cc(C(=O)O)ccc21 [Example 119, 2-(6-Methanesulfonyl-benzothiazol-2-ylamino)-1-methyl-1H-benzimidazole-5-carboxylic acid] | 22.1 |
| Cc1ccc2nc(Nc3nc4cc(C(=O)O)ccc4n3C)sc2c1 [Example 120, 1-Methyl-2-(6-methyl-benzothiazol-2-ylamino)-1H-benzimidazole-5-carboxylic acid] | 1.7 |
| Cn1c(Nc2nc3ccc(OC(F)(F)F)cc3s2)nc2cc(C(=O)NC3CCS(=O)(=O)C3)ccc21 (stereo not drawn) [Example 121, 1-Methyl-2-(6-trifluoromethoxy-benzothiazol-2-ylamino)-1H-benzimidazole-5-carboxylic acid (1,1-dioxo-tetrahydro-1λ^6-thiophen-3-yl)-amide] | 29.6 |
| CNC(=O)c1ccc2c(c1)nc(Nc1nc3cc(F)ccc3s1)n2C [Example 122, 2-(5-Fluoro-benzothiazol-2-ylamino)-1-methyl-1H-benzimidazole-5-carboxylic acid methylamide] | 26.1 |
| COCCNC(=O)c1ccc2c(c1)nc(Nc1nc3cc(F)ccc3s1)n2C [Example 123, 2-(5-Fluoro-benzothiazol-2-ylamino)-1-methyl-1H-benzimidazole-5-carboxylic acid (2-methoxy-ethyl)-amide] | 12.7 |
| CNC(=O)c1ccc2c(c1)nc(Nc1nc3ccc(F)cc3s1)n2C [Example 124, 2-(6-Fluoro-benzothiazol-2-ylamino)-1-methyl-1H-benzimidazole-5-carboxylic acid methylamide] | 22.9 |
| COCCNC(=O)c1ccc2c(c1)nc(Nc1nc3ccc(F)cc3s1)n2C [Example 125, 2-(6-Fluoro-benzothiazol-2-ylamino)-1-methyl-1H-benzimidazole-5-carboxylic acid (2-methoxy-ethyl)-amide] | 25.9 |
| CNC(=O)c1ccc2c(c1)nc(Nc1nc3ccc(S(C)(=O)=O)cc3s1)n2C [Example 126, 2-(6-Methanesulfonyl-benzothiazol-2-ylamino)-1-methyl-1H-benzimidazole-5-carboxylic acid methylamide] | 4.6 |
| COCCNC(=O)c1ccc2c(c1)nc(Nc1nc3ccc(S(C)(=O)=O)cc3s1)n2C [Example 127, 2-(6-Methanesulfonyl-benzothiazol-2-ylamino)-1-methyl-1H-benzimidazole-5-carboxylic acid (2-methoxy-ethyl)-amide] | 12.4 |

From patent US8759535B2, “Substituted fused imidazole derivatives, pharmaceutical compositions, and methods of use thereof” (High Point Pharmaceuticals, LLC, priority 2010, dated 2014)
